According to patent US20160158317A1, “Antimicrobial Peptide Variants and Polynucleotides Encoding Same” (Adenium Biotech A/S, priority 2010, published 2016):
Where a SMILES comes first, the peptide text is derived from it. Bridges are numbered along the chain shown (N, C = ends).

Assay: Determination of the protein binding (90% serum, 30 kDa filter, HPLC)
Type: in vitro ADME
Settings: serum
Method: Protein binding assays were performed as follows. The purified peptides were mixed with 90% serum and centrifuged through a 30 kDa filter. The ultra-filtrate and the non filtrated serum samples were quantified by HPLC measurements and the protein binding was subsequently calculated.

Row | Structure (SMILES) | fraction unbound
1 | CC(C)[C@@H]1NC(=O)CNC(=O)[C@H](CCCNC(=N)N)NC(=O)[C@H](CCCNC(=N)N)NC(=O)[C@H](Cc2ccc(O)cc2)NC(=O)[C@H](C(C)C)NC(=O)[C@@H]2CSSC[C@H](NC(=O)[C@H](C(C)C)NC(=O)[C@H](CCCNC(=N)N)NC1=O)C(=O)N[C@@H](Cc1c[nH]cn1)C(=O)N[C@@H](CCCNC(=N)N)C(=O)N[C@@H](CCCNC(=N)N)C(=O)N[C@H](C(=O)N[C@@H](CC(N)=O)C(=O)O)CSSC[C@H](NC(=O)[C@H](Cc1ccccc1)NC(=O)CN)C(=O)N[C@@H](Cc1c[nH]c3ccccc13)C(=O)N[C@@H](CC(N)=O)C(=O)N[C@@H](C(C)C)C(=O)N2 [compound 234] (H-GFCWNVCVYRRGVRVCHRRCN-OH; disulfide 3-20, 7-16 (inferred); N-terminus and C-terminus assumed) | 0.14
2 | CC(C)[C@@H]1NC(=O)[C@H](CCCNC(=N)N)NC(=O)[C@H](C)NC(=O)CNC(=O)[C@H](CC(N)=O)NC(=O)[C@H](CCCNC(=N)N)NC(=O)[C@H](Cc2ccc(O)cc2)NC(=O)[C@H](C(C)C)NC(=O)[C@@H]2CSSC[C@H](NC1=O)C(=O)N[C@@H](Cc1c[nH]cn1)C(=O)N[C@@H](CCCNC(=N)N)C(=O)N[C@@H](CCCNC(=N)N)C(=O)N[C@H](C(=O)N[C@@H](CC(N)=O)C(=O)O)CSSC[C@H](NC(=O)[C@H](Cc1ccccc1)NC(=O)CN)C(=O)N[C@@H](Cc1c[nH]c3ccccc13)C(=O)N[C@@H](CC(N)=O)C(=O)N[C@@H](C(C)C)C(=O)N2 [compound 235] (H-GFCWNVCVYRNGARVCHRRCN-OH; disulfide 3-20, 7-16 (inferred); N-terminus and C-terminus assumed) | 0.36
3 | CC(C)[C@@H]1NC(=O)[C@H](CCCNC(=N)N)NC(=O)[C@H](Cc2c[nH]cn2)NC(=O)CNC(=O)[C@H](CC(N)=O)NC(=O)[C@H](CCCNC(=N)N)NC(=O)[C@H](Cc2ccc(O)cc2)NC(=O)[C@H](C(C)C)NC(=O)[C@@H]2CSSC[C@H](NC1=O)C(=O)N[C@@H](Cc1c[nH]cn1)C(=O)N[C@@H](CCCNC(=N)N)C(=O)N[C@@H](CCCNC(=N)N)C(=O)N[C@H](C(=O)N[C@@H](CC(N)=O)C(=O)O)CSSC[C@H](NC(=O)[C@H](Cc1ccccc1)NC(=O)CN)C(=O)N[C@@H](Cc1c[nH]c3ccccc13)C(=O)N[C@@H](CC(N)=O)C(=O)N[C@@H](C(C)C)C(=O)N2 [compound 237] (H-GFCWNVCVYRNGHRVCHRRCN-OH; disulfide 3-20, 7-16 (inferred); N-terminus and C-terminus assumed) | 0.6
4 | CC(C)[C@@H]1NC(=O)[C@H](CCCNC(=N)N)NC(=O)[C@H](CCCNC(=N)N)NC(=O)CNC(=O)[C@H](CC(N)=O)NC(=O)[C@H](CCCNC(=N)N)NC(=O)[C@H](Cc2ccc(O)cc2)NC(=O)[C@H](C(C)C)NC(=O)[C@@H]2CSSC[C@H](NC1=O)C(=O)N[C@@H](Cc1c[nH]cn1)C(=O)N[C@@H](CCCNC(=N)N)C(=O)N[C@@H](CCCNC(=N)N)C(=O)N[C@H](C(=O)N[C@@H](CC(N)=O)C(=O)O)CSSC[C@H](NC(=O)[C@H](Cc1ccccc1)NC(=O)CN)C(=O)N[C@@H](Cc1c[nH]c3ccccc13)C(=O)N[C@@H](CC(N)=O)C(=O)N[C@@H](C(C)C)C(=O)N2 [compound 239] (H-GFCWNVCVYRNGRRVCHRRCN-OH; disulfide 3-20, 7-16 (inferred); N-terminus and C-terminus assumed) | 0.35
5 | CC(C)[C@@H]1NC(=O)[C@H](CCCNC(=N)N)NC(=O)[C@H](Cc2ccc(O)cc2)NC(=O)CNC(=O)[C@H](CC(N)=O)NC(=O)[C@H](CCCNC(=N)N)NC(=O)[C@H](Cc2ccc(O)cc2)NC(=O)[C@H](C(C)C)NC(=O)[C@@H]2CSSC[C@H](NC1=O)C(=O)N[C@@H](Cc1c[nH]cn1)C(=O)N[C@@H](CCCNC(=N)N)C(=O)N[C@@H](CCCNC(=N)N)C(=O)N[C@H](C(=O)N[C@@H](CC(N)=O)C(=O)O)CSSC[C@H](NC(=O)[C@H](Cc1ccccc1)NC(=O)CN)C(=O)N[C@@H](Cc1c[nH]c3ccccc13)C(=O)N[C@@H](CC(N)=O)C(=O)N[C@@H](C(C)C)C(=O)N2 [compound 242] (H-GFCWNVCVYRNGYRVCHRRCN-OH; disulfide 3-20, 7-16 (inferred); N-terminus and C-terminus assumed) | 0.17
6 | CC(C)[C@@H]1NC(=O)CNC(=O)[C@H](CC(N)=O)NC(=O)[C@H](CCCNC(=N)N)NC(=O)[C@H](Cc2ccc(O)cc2)NC(=O)[C@H](C(C)C)NC(=O)[C@@H]2CSSC[C@H](NC(=O)[C@H](Cc3ccccc3)NC(=O)[C@H](CCCNC(=N)N)NC1=O)C(=O)N[C@@H](Cc1c[nH]cn1)C(=O)N[C@@H](CCCNC(=N)N)C(=O)N[C@@H](CCCNC(=N)N)C(=O)N[C@H](C(=O)N[C@@H](CC(N)=O)C(=O)O)CSSC[C@H](NC(=O)[C@H](Cc1ccccc1)NC(=O)CN)C(=O)N[C@@H](Cc1c[nH]c3ccccc13)C(=O)N[C@@H](CC(N)=O)C(=O)N[C@@H](C(C)C)C(=O)N2 [compound 245] (H-GFCWNVCVYRNGVRFCHRRCN-OH; disulfide 3-20, 7-16 (inferred); N-terminus and C-terminus assumed) | 0.15
7 | CC(C)[C@@H]1NC(=O)CNC(=O)[C@H](CC(N)=O)NC(=O)[C@H](CCCNC(=N)N)NC(=O)[C@H](Cc2ccc(O)cc2)NC(=O)[C@H](C(C)C)NC(=O)[C@@H]2CSSC[C@H](NC(=O)CNC(=O)[C@H](CCCNC(=N)N)NC1=O)C(=O)N[C@@H](Cc1c[nH]cn1)C(=O)N[C@@H](CCCNC(=N)N)C(=O)N[C@@H](CCCNC(=N)N)C(=O)N[C@H](C(=O)N[C@@H](CC(N)=O)C(=O)O)CSSC[C@H](NC(=O)[C@H](Cc1ccccc1)NC(=O)CN)C(=O)N[C@@H](Cc1c[nH]c3ccccc13)C(=O)N[C@@H](CC(N)=O)C(=O)N[C@@H](C(C)C)C(=O)N2 [compound 246] (H-GFCWNVCVYRNGVRGCHRRCN-OH; disulfide 3-20, 7-16 (inferred); N-terminus and C-terminus assumed) | 0.21
8 | CC[C@H](C)[C@@H]1NC(=O)[C@H](CCCNC(=N)N)NC(=O)[C@H](C(C)C)NC(=O)CNC(=O)[C@H](CC(N)=O)NC(=O)[C@H](CCCNC(=N)N)NC(=O)[C@H](Cc2ccc(O)cc2)NC(=O)[C@H](C(C)C)NC(=O)[C@@H]2CSSC[C@H](NC1=O)C(=O)N[C@@H](Cc1c[nH]cn1)C(=O)N[C@@H](CCCNC(=N)N)C(=O)N[C@@H](CCCNC(=N)N)C(=O)N[C@H](C(=O)N[C@@H](CC(N)=O)C(=O)O)CSSC[C@H](NC(=O)[C@H](Cc1ccccc1)NC(=O)CN)C(=O)N[C@@H](Cc1c[nH]c3ccccc13)C(=O)N[C@@H](CC(N)=O)C(=O)N[C@@H](C(C)C)C(=O)N2 [compound 248] (H-GFCWNVCVYRNGVRICHRRCN-OH; disulfide 3-20, 7-16 (inferred); N-terminus and C-terminus assumed) | 0.42
9 | CC(C)C[C@@H]1NC(=O)[C@H](CCCNC(=N)N)NC(=O)[C@H](C(C)C)NC(=O)CNC(=O)[C@H](CC(N)=O)NC(=O)[C@H](CCCNC(=N)N)NC(=O)[C@H](Cc2ccc(O)cc2)NC(=O)[C@H](C(C)C)NC(=O)[C@@H]2CSSC[C@H](NC1=O)C(=O)N[C@@H](Cc1c[nH]cn1)C(=O)N[C@@H](CCCNC(=N)N)C(=O)N[C@@H](CCCNC(=N)N)C(=O)N[C@H](C(=O)N[C@@H](CC(N)=O)C(=O)O)CSSC[C@H](NC(=O)[C@H](Cc1ccccc1)NC(=O)CN)C(=O)N[C@@H](Cc1c[nH]c3ccccc13)C(=O)N[C@@H](CC(N)=O)C(=O)N[C@@H](C(C)C)C(=O)N2 [compound 249] (H-GFCWNVCVYRNGVRLCHRRCN-OH; disulfide 3-20, 7-16 (inferred); N-terminus and C-terminus assumed) | 0.17
